Measurements from patent US20040009195A1, “Modified sialic acid vaccines” (priority 2003, published 2004).

System: SK-Mel-28 human melanoma cells
Assay: Expression of modified GD3 after incubation with modified precursors (flow cytometry, CE-MS)
Assay type: cell-based
Conditions: 1 mg/ml precursor concentration; in agreement with flow cytometry
Method: SK-Mel-28 human melanoma cells normally expressing GD3 were incubated with modified sialic acid precursors. The modified sialic acid precursors used were N-acylated Mannosamines(“ManNAc”), including: N-propionyl mannosamine (“ManNPr”), N-butyril mannosamine (“ManNBu”), and N-benzoyl mannosamine (“ManNBz”).
The incorporation and metabolism of the surface GD3 antigen were also investigated. […] Modified GD3 on SK-Mel-28 cells in vitro was still found 10 days after removal of precursors from the growth medium, when two populations of antigens, unmodified and modified GD3 were detected by mAb R24 and respective antiserum.
The relative quantity of modified and unmodified GD3 expressed on the SK-Mel-28 was analysed by capillary electrophoresis-mass spectroscopy (“CE-MS”). The glycolipids extracted from cells grown in various concentrations of ManNBu were separated by capillary electrophoresis and negative charged glycolipids were detected. GD3 was the dominant ganglioside found in SK-Mel-28 cells. When ManNBu was added to the medium, the modified GD3 was biosynthesized and expressed.

CCCC(=O)N[C@@H]1C(O)O[C@H](CO)[C@@H](O)[C@@H]1O (stereo partly shown) [ManNBu, N-butyril mannosamine]
Relative expression of modified GD3 by CE-MS: well expressed
